Experiment [1] addresses T1, BRD4 bromo domain 1 [BRD4(1)] (Homo sapiens, UniProt O60885).
T1 construct: N-terminally His6-tagged BRD4(1) (amino acids 67-152); made in house; host or cells: E. coli
Briefly: BRD4/acetylated peptide H4 binding assay (TR-FRET), BRD4 bromo domain 1. The conditions noted are these: inhibition of BRD4(1)/Ac-H4 peptide interaction. An excerpt:
(§1) Protein-Protein Interaction Assay: BRD4/Acetylated Peptide H4 Binding Assay
To assess the BRD4(1) binding strength of the substances described in this application, the ability thereof to inhibit the interaction between BRD4(1) and acetylated histone H4 in a dose-dependent manner was quantified.
(§2) For this purpose, a time-resolved fluorescence resonance energy transfer (TR-FRET) assay was used, which measures the binding between N-terminally His6-tagged BRD4(1) (amino acids 67-152) and a synthetic acetylated histone H4 (Ac-H4) peptide with sequence GRGK(Ac)GGK(Ac)GLGK(Ac)GGAK(Ac)RHGSGSK-biotin. The recombinant BRD4(1) protein produced in-house according to Filippakopoulos et al., Nature, 2010, 468:1119-1123 and Cell, 2012, 149:214-231, was expressed in E. coli and purified by means of (Ni-NTA) affinity and (Sephadex G-75) size exclusion chromatography. The Ac-H4 peptide can be purchased, for example, from Biosyntan (Berlin, Germany).
(§3) In the assay, typically 11 different concentrations of each substance (0.1 nM, 0.33 nM, 1.1 nM, 3.8 nM, 13 nM, 44 nM, 0.15 μM, 0.51 μM, 1.7 μM, 5.9 μM and 20 μM) were analysed as duplicates on the same microtitre plate. For this purpose, 100-fold concentrated solutions in DMSO were prepared by serial dilutions (1:3.4) of a 2 mM stock solution into a clear, 384-well microtitre plate (Greiner Bio-One, Frickenhausen, Germany). From this, 50 nl were transferred into a black test plate (Greiner Bio-One, Frickenhausen, Germany). The test was started by the addition of 2 μl of a 2.5-fold concentrated BRD4(1) solution (final concentration typically 10 nM in the 5 μl of reaction volume) in aqueous assay buffer [50 mM HEPES pH 7.5, 50 mM sodium chloride (NaCl), 0.25 mM CHAPS and 0.05% serum albumin (BSA)] to the substances in the test plate. This was followed by a 10-minute incubation step at 22° C. for the pre-equilibration of putative complexes between BRD4(1) and the substances.
(§4) The mixture was then incubated in the dark at 22° C. for one hour and then at 4° C. for at least 3 hours and for no longer than overnight. The formation of BRD4(1)/Ac-H4 complexes was determined by the measurement of the resonance energy transfer from the streptavidin-Eu cryptate to the anti-6His-XL665 antibody present in the reaction. For this purpose, the fluorescence emission was measured at 620 nm and 665 nm after excitation at 330-350 nm in a TR-FRET measuring instrument, for example a Rubystar or Pherastar (both from BMG Lab Technologies, Offenburg, Germany) or a Viewlux (Perkin-Elmer). The ratio of the emissions at 665 nm and at 622 nm was taken as an indicator of the amount of BRD4(1)/Ac-H4 complexes formed.
The data (ratios) obtained were normalized, with 0% inhibition corresponding to the mean from the measurements for a set of controls (typically 32 data points) in which all the reagents were present. In these, in place of test substances, 50 nl of DMSO (100%) were used. Inhibition of 100% corresponded to the mean from the measurements for a set of controls (typically 32 data points) in which all the reagents except BRD4(1) were present. The IC50 was determined by regression analysis based on a 4-parameter equation (minimum, maximum, IC50, Hill; Y=max+(min−max)/(1+(X/IC50)Hill)).
For orientation: Time-resolved FRET reads energy transfer from a long-lived donor to a nearby acceptor.

Experiment [2] deals with T2, BRD4 bromo domain 2 [BRD4(2)] (Homo sapiens, UniProt O60885).
T2 construct: N-terminally His6-tagged BRD4(2) (amino acids 357-445); made in house; host or cells: E. coli
Briefly: BRD4/acetylated peptide H4 binding assay (TR-FRET), BRD4 bromo domain 2. The following applies: inhibition of BRD4(2)/Ac-H4 peptide interaction.
From the text: as §1
To assess the BRD4(2) binding strength of the substances described in this application, the ability thereof to inhibit the interaction between BRD4(2) and acetylated histone H4 in a dose-dependent manner was quantified.
as §2, with “BRD4(2)” for “BRD4(1)”, “357-445)” for “67-152)”, “SGRGK(Ac)GGK(Ac)GLGK(Ac)GGAK(Ac)RHRKVLRDNGSGSK-biotin.” for “GRGK(Ac)GGK(Ac)GLGK(Ac)GGAK(Ac)RHGSGSK-biotin.”
as §3, with “concentrated BRD4(2)” for “concentrated BRD4(1)”, “typically 100” for “typically 10”, “chloride (NaCl); 50 mM potassium fluoride (KF);” for “chloride (NaCl),”, “between BRD4(2)” for “between BRD4(1)”, “substances. Subsequently, 3 μl of a 1.67-fold concentrated solution (in assay buffer) consisting of Ac-H4 peptide (83.5 nM) and TR-FRET detection reagents [83.5 nM anti-6His-XL665 (Cisbio Bioassays, Codolet, France) and 12.52 nM streptavidin-Eu), (Perkin Elmer, #W1024)] in assay buffer were added.” for “substances.”
as §4, with “BRD4(2)/Ac-H4” for “BRD4(1)/Ac-H4”, “chelate” for “cryptate”
The data (ratios) obtained were normalized, with 0% inhibition corresponding to the mean from the measurements for a set of controls (typically 32 data points) in which all the reagents were present. In these, in place of test substances, 50 nl of DMSO (100%) were used. Inhibition of 100% corresponded to the mean from the measurements for a set of controls (typically 32 data points) in which all the reagents except BRD4(2) were present. The IC50 was determined by regression analysis based on a 4-parameter equation (minimum, maximum, IC50, Hill; Y=max+(min−max)/(1+(X/IC50)Hill)).

The term IC50 denotes the concentration at which inhibition is half-maximal. Higher therefore signals weaker potency.

SMILES strings stand for the structures.

For the molecule `COCCN1c2nc(Nc3cccc(C(=O)NC4CCN(C)CC4)c3)ccc2N(C)C(=O)C1C` (racemic) [Example 98, 3-{[4-(2-methoxyethyl)-1,3-dimethyl-2-oxo-1,2,3,4-tetrahydropyrido[2,3-b]pyrazin-6-yl]amino}-N-(1-methylpiperidin-4-yl)benzamide], the IC50 in experiment [1] was determined as 0.531 µM; in experiment [2] it was 0.216 µM. In the case of `COCCN1c2nc(Nc3cccc(S(=O)(=O)N4CCOCC4)c3)ccc2N(C)C(=O)[C@@H]1C` (stereo in doubt) [Example 112, (3S)-4-(2-methoxyethyl)-1,3-dimethyl-6-{[3-(morpholin-4-ylsulphonyl)phenyl]amino}-3,4-dihydropyrido[2,3-b]pyrazin-2(1H)-one], the IC50 was found to be 5.3 µM in experiment [1] and 0.057 µM in experiment [2].

With `C[C@@H]1C(=O)N(C)c2ccc(Nc3cccc(C(=O)NC4CCN(C)CC4)c3)nc2N1c1ccc(F)cc1` (stereo in doubt) [Example 115, 3-{[(3R)-4-(4-fluorophenyl)-1,3-dimethyl-2-oxo-1,2,3,4-tetrahydropyrido[2,3-b]pyrazin-6-yl]amino}-N-(1-methylpiperidin-4-yl)benzamide], the IC50 came to 0.379 µM in experiment [1] and 0.706 µM in experiment [2]. For `C[C@H]1C(=O)N(C)c2ccc(Nc3cccc(C(=O)NC4CCN(C)CC4)c3)nc2N1c1ccc(F)cc1` (stereo in doubt) [Example 116, 3-{[(3S)-4-(4-fluorophenyl)-1,3-dimethyl-2-oxo-1,2,3,4-tetrahydropyrido[2,3-b]pyrazin-6-yl]amino}-N-(1-methylpiperidin-4-yl)benzamide], the IC50 in experiment [1] was 6.75 µM; in experiment [2] it was greater than 40 µM. In the case of `COCCN1c2nc(Nc3cccc(C(=O)N4CCN(C)CC4)c3)ccc2N(C)C(=O)[C@H]1C` (stereo in doubt) [Example 117, (3R)-4-(2-methoxyethyl)-1,3-dimethyl-6-({3-[(4-methylpiperazin-1-yl)carbonyl]phenyl}amino)-3,4-dihydropyrido[2,3-b]pyrazin-2(1H)-one], the IC50 in experiment [1] was 0.489 µM; in experiment [2] it was 0.434 µM. For `COCCN1c2nc(Nc3cccc(C(=O)N4CCN(C)CC4)c3)ccc2N(C)C(=O)[C@@H]1C` (stereo in doubt) [Example 118, (3S)-4-(2-methoxyethyl)-1,3-dimethyl-6-({3-[(4-methylpiperazin-1-yl)carbonyl]phenyl}amino)-3,4-dihydropyrido[2,3-b]pyrazin-2(1H)-one] the same measures were 18.2 µM and greater than 40 µM. For `COCCN1c2nc(Nc3cccc(C(=O)NC4CCN(C)CC4)c3)ccc2N(C)C(=O)[C@H]1C` (stereo in doubt) [Example 119, 3-{[(3R)-4-(2-methoxyethyl)-1,3-dimethyl-2-oxo-1,2,3,4-tetrahydropyrido[2,3-b]pyrazin-6-yl]amino}-N-(1-methylpiperidin-4-yl)benzamide] the same measures were 0.742 µM and 0.428 µM. Regarding `COCCN1c2nc(Nc3cccc(C(=O)NC4CCN(C)CC4)c3)ccc2N(C)C(=O)[C@@H]1C` (stereo in doubt) [Example 120, 3-{[(3S)-4-(2-methoxyethyl)-1,3-dimethyl-2-oxo-1,2,3,4-tetrahydropyrido[2,3-b]pyrazin-6-yl]amino}-N-(1-methylpiperidin-4-yl)benzamide], the figures for the IC50 in experiment [1] and in experiment [2] were 6.87 µM and 4.46 µM, respectively.

In turn, `COc1ccc(C(=O)N[C@H]2CC[C@H](N3CCN(CC4CC4)CC3)CC2)cc1Nc1ccc2c(n1)N(C1CCOCC1)[C@H](C)C(=O)N2C` [Example 18, N-{trans-4-[4-(Cyclopropylmethyl)piperazin-1-yl]cyclohexyl}-3-{[(3R)-1,3-dimethyl-2-oxo-4-(tetrahydro-2H-pyran-4-yl)-1,2,3,4-tetrahydropyrido[2,3-b]pyrazin-6-yl]amino}-4-methoxybenzamide] displayed an IC50 in experiment [1] of 0.149 µM. The same measure, in the same setting: under `C[C@@H]1C(=O)N(C)c2ccc(Nc3cccc(S(=O)(=O)N4CC(F)(F)C4)c3)nc2N1C1CCOCC1` [Example 31, (3R)-6-({3-[(3,3-Difluoroazetidin-1-yl)sulphonyl]phenyl}amino)-1,3-dimethyl-4-(tetrahydro-2H-pyran-4-yl)-3,4-dihydropyrido[2,3-b]pyrazin-2(1H)-one] stands 0.04 µM; under `CC(C)NS(=O)(=O)c1cccc(Nc2ccc3c(n2)N(C2CCOCC2)[C@H](C)C(=O)N3C)c1` [Example 42, 3-{[(3R)-1,3-dimethyl-2-oxo-4-(tetrahydro-2H-pyran-4-yl)-1,2,3,4-tetrahydropyrido[2,3-b]pyrazin-6-yl]amino}-N-isopropylbenzene-sulphonamide], 0.036 µM.

`COc1ccc(C(=O)N[C@H]2CC[C@H](N3CCN(CC4CC4)CC3)CC2)cc1Nc1ccc2c(n1)N(C1CCOCC1)[C@H](C)C(=O)N2C` [Example 87, N-{trans-4-[4-(cyclo-propylmethyl)piperazin-1-yl]cyclohexyl}-3-{[(3R)-1,3-dimethyl-2-oxo-4-(tetrahydro-2H-pyran-4-yl)-1,2,3,4-tetrahydropyrido[2,3-b]pyrazin-6-yl]amino}-4-methoxybenzamide] came in with an IC50 in experiment [1] of 0.351 µM.

(Values after US20160176867A1, “MODIFIED BET-PROTEIN-INHIBITING DIHYDROQUINOXALINONES AND DIHYDROPYRIDOPYRAZINONES” (BAYER PHARMA AKTIENGESELLSCHAFT, priority 2013, published 2016).)
